For the experiment, the system named is P. falciparum 3D7 growth, pLDH absorbance. Description: blood-stage malaria parasite growth potency – strain 3D7, dose response (AID 2305).
In turn, `Cc1ccc(Cn2ncc(N3C[C@@H](C)N[C@@H](C)C3)c(Cl)c2=O)cc1NC(=O)Nc1ccc(-c2ccccc2)cc1` returned an IC50 of 0.74 µM.
To `CC(=O)Nc1ccc(C(=O)Nc2ccc(-c3cccc(-c4nc5ccc(F)cc5[nH]4)c3)cc2)cn1` belongs 0.23 µM; to `Cc1cc(NCCC(=O)NCc2cccc(F)c2)nc(NCCc2ccc(F)cc2)n1`, 1.75 µM.
`Nc1nccc2ccc(-c3ccc4ncccc4c3)cc12` showed a half-inhibitory concentration (IC50) of 0.11 µM.
To `CCCCCC(=O)N1CCOC(CCN2CCC(c3ccccc3)CC2)(c2ccc(Cl)c(Cl)c2)C1` (stereo unspecified) belongs 1.12 µM; to `CCCc1cc(=O)[nH]c(-n2nc(C)cc2NC(=O)c2cc3ccccc3o2)n1`, 1.11 µM.
Compound `CN(CC(=O)Nc1cc(C(F)(F)F)ccc1-n1cncn1)Cc1ccc2ccccc2c1` displayed an IC50 of 0.23 µM.
To `COc1cc(Nc2ccc3cc(S(=O)(=O)N4CCCCC4C)ccc3n2)cc(OC)c1OC` (stereo unspecified) belongs 1.24 µM; to `CC(C)CC(=O)N(Cc1ccc(-c2ccc(CNC3Cc4ccccc4C3)cc2)cc1)C1CCNCC1`, 1.17 µM.
The value for `COc1ccc(-c2cc(C(=O)N[C@@H](Cc3ccccc3)C(=O)NCCN3CCCCC3)ccc2O)cc1` was 0.79 µM.
The value for `N#Cc1ccc(-c2ccc(C(=O)NCCCCN3CCC(c4nc5ccccc5[nH]4)CC3)cc2)cc1` was 1.01 µM; that for `COc1ccc(CN=C(N)Nc2nc(-c3ccc(OCCCn4ccnc4)cc3)cs2)cc1` was 0.39 µM.
As for `CCn1c(-c2nonc2N)nc2c(-c3cccc(NC(=O)Nc4ccc(C(F)(F)F)cc4)c3)ncc(OCCCN)c21`, the concentration for half-maximal inhibition (IC50) was 1.05 µM.
As for `COc1cc(C2CCN(CCCCNC(=O)c3ccc(NC(=O)c4cc(C(F)(F)F)cc(C(F)(F)F)c4)cc3)CC2)ccc1OC(C)C`, the 50% inhibitory concentration (IC50) is 0.15 µM.
`O=C(Nc1cccc(-c2nn3ccccc3c2-c2ccnc(Nc3ccccc3)n2)c1)c1cc(F)ccc1F` displayed a half-inhibitory concentration (IC50) of 0.95 µM. This IC50 is about 6.3-fold higher than that of the compound before.
The value for `O=C(N[C@H]1CCN(Cc2ccc(OC3CCN(Cc4ccccc4)CC3)c(Br)c2)C1)c1ccc(Cl)c(Cl)c1` was 0.78 µM; that for `CCCCn1c(N)c(N(Cc2ccco2)C(=O)C=Cc2cc(OC)c3c(c2)OCCO3)c(=O)[nH]c1=O` was 0.95 µM.
To `COc1ccc(CCCN2C(=O)C(c3ccccc3)(c3ccccc3)N=C2N)cc1` belongs 1.05 µM.
Regarding `O=C(Nc1ccccc1)N(Cc1ccc(-c2cccc(CNC3CCCC3)c2)cc1)C1CCN(Cc2ccccc2)CC1`, the IC50 turned out to be 0.43 µM.
The value for `CCCCCCCN1CC[C@@H](CCCc2ccnc3ccc(OCC4CCCNC4)cc23)[C@@H](CC)C1` (stereo partly specified) was 0.62 µM; that for `O=C(NCCCCN1CCC(c2ccc(Br)cc2)CC1)c1ccc(NC(=O)c2ccc(Cl)cc2)cc1` was 0.71 µM.
`CN1CCCN(Cc2cccc(-c3cccc(NC(=O)c4cccc(C#N)c4)c3)c2)CC1`: the IC50 worked out at 0.82 µM. The IC50 values of the last two compounds are within 1.5-fold of each other.
Regarding `CC(C)CCN1CCCN(Cc2ccc(C(=O)Nc3ccc(F)c(F)c3)cc2)CC1`, the concentration for half-maximal inhibition (IC50) turned out to be 0.94 µM. The IC50 values of the last two compounds are within 1.5-fold of each other.
In turn, `Cc1[nH]c(C)c(Cc2ccc(Oc3ccc(OC(F)(F)F)cc3)cc2)c(=O)c1Br` showed an IC50 of 0.69 µM.
To `CS(=O)(=O)CCNCc1cccc(-c2cc3c(Nc4ccc(OCc5cccc(F)c5)c(Cl)c4)ncnc3s2)c1` belongs 0.2 µM; to `CCCC1(NC[C@@H](O)[C@H](Cc2ccccc2)NC(=O)c2cc(NCC)cc(N3CCCCS3(=O)=O)c2)CCC1`, 0.72 µM.
To `CC1CCCCN1CCCNC(=O)c1cccc(-c2cc3cc(Cl)c(Cl)cc3[nH]2)c1` (stereo unspecified) belongs 0.88 µM.
`Cc1[nH]c2ccccc2c1C(=O)C(C)Sc1n[nH]c(-c2ccccc2Br)n1` (stereo unspecified) registered a concentration for half-maximal inhibition (IC50) of 0.03 µM. This IC50 lies about 29-fold lower than the previous one.
`CCN1[C@@H](c2ccc(Cl)cc2)[C@@H](CNCc2ccccc2O)C[C@@]1(C)CO` yielded a half-maximal inhibitory concentration (IC50) of 0.31 µM.
To `CN1CCN(c2cc3c(Nc4ccc5c(cnn5Cc5ccccc5)c4)ncnc3cn2)CC1` belongs 1.13 µM.
The value for `COc1ccc(-c2ccc(NC(=O)c3ccc(Cl)cc3)cc2)cc1CN(C)CCO` was 0.81 µM.
The compound `CCc1ccc(C(=O)NC(=O)c2ccccc2O)cc1` yielded an IC50 of 0.61 µM.
On to `Cc1cccc2c(N=NC(=S)N(C)C)c(O)[nH]c12`, for which the IC50 was determined as 0.75 µM.
In turn, `COc1ccc(S(=O)(=O)NC2CCN(CCNC(=O)Nc3cc(C)nc4ccccc34)C2)cc1` (stereo unspecified) registered an IC50 of 1.19 µM.
To `N#CC(c1ccc(F)cc1)c1ccc2c(C(F)(F)F)cc(C(F)(F)F)nc2n1` (stereo unspecified) belongs 0.73 µM; to `Clc1ccc(Cl)c2[nH]c(CNCCCNc3nc4ccccc4[nH]3)cc12`, 0.16 µM; to `Cc1cc(N(C)C)nc(Nc2ccc(NC(=O)c3ccc(F)cc3)cc2)n1`, 0.71 µM.
`Cc1ccc2c(c1[N+](=O)[O-])N=NCC2Oc1ccccc1` (stereo unspecified) returned an IC50 of 0.87 µM. The IC50 values of the last two compounds are within 1.5-fold of each other.
To `CC(C)Cc1nc(N)nc(N)c1-c1ccc(Cl)cc1` belongs 0.14 µM; to `CCN(CC)Cc1cc(Nc2c3ccc(Cl)cc3nc3cccc(OC)c23)ccc1O`, 0.03 µM; to `Cc1nccc2c(NC(=O)N[C@@H]3CCN(c4ncc(C(F)(F)F)cc4Br)C3)cccc12`, 0.36 µM.
The value for `COc1ccc2nccc([C@@H](O)CN3CCC(NCc4cc5ccccc5o4)CC3)c2c1` was 0.66 µM; that for `O=c1cc(NCCNCc2cccc(-c3ccccc3)c2)[nH]c2ccccc12` was 1.03 µM.
The value for `Cc1cc(NN=Cc2cccc(Cl)c2)c2ccccc2n1` was 0.26 µM.
The compound `COc1ccccc1CCC(C)(C)NC(=O)CC(CCc1ccccc1)Nc1ccc(C#N)c2ccccc12` (stereo unspecified) registered an IC50 of 0.92 µM. Against the preceding compound, the IC50 is about 3.5-fold higher.
`O=C(O)c1cc(OCC(O)COc2ccc(O)c(C(=O)O)c2)ccc1O`: the IC50 amounted to 0.23 µM. Compared with the last compound, the IC50 is about 4-fold lower.
As to `c1ccc(Oc2ccc(Nc3ccnc4ccc(-c5ccccn5)cc34)cc2)cc1`, the IC50 was 1.1 µM.
On to `O=C(NCC1CCCCC1)c1cc(=O)c2ccccc2o1`, for which the IC50 stood at 0.32 µM.
The value for `CCc1cn2c3c(cc(C(=O)N[C@@H](Cc4ccccc4)[C@H](O)CNCc4ccc(C)cc4)cc13)N(C)S(=O)(=O)CC2` was 0.55 µM; that for `COc1ccc(-n2nc(C)cc2C(=O)NCc2ccc(-c3c(C)noc3C)cc2)cc1` was 0.98 µM.
As for `CCN(c1ccc(F)cc1)S(=O)(=O)c1cc(Br)cc2c1N(C(=O)C1CC1)CC2`, the 50% inhibitory concentration (IC50) was 0.94 µM.
The value for `O=C(Nc1ccccc1)Nc1cccc(-c2cc(CNCCc3ccccc3)sc2-c2ccncc2)c1` was 0.6 µM.
Regarding `c1ccc2c(Nc3ccc(Cc4ccc(Nc5c6ccccc6nc6ccccc56)cc4)cc3)c3ccccc3nc2c1`, the IC50 came to 0.16 µM. Against the preceding compound, the IC50 is about 3.8-fold lower.
The value for `Cc1noc(C)c1-c1ccc2c(Nc3ccc([N+](=O)[O-])cc3)c(C(N)=O)cnc2c1` was 0.69 µM; that for `COc1ccc2nccc([C@@H](O)CN3CCC(NCc4ccc5c(c4)NC(=O)CS5)CC3)c2c1` was 0.57 µM; that for `CCOC(=O)c1cccc(NC(=O)Nc2cc(C)nc3ccccc23)c1` was 0.29 µM.
The value for `Cc1cccc2[nH]c(-c3ccc(-c4ccc(CN5CCCC5CN)cc4)cc3)nc12` (stereo unspecified) was 0.81 µM.
To `O=C(Nc1ccc(OC2CCN(Cc3ccco3)CC2)c(Cl)c1)c1ccc2ncccc2c1` belongs 0.95 µM; to `Cc1cc(-c2ccc3c(c2)CCN(CCC2CCC(NC(=O)/C=C/c4cccc(Cl)c4)CC2)CC3)on1` (stereo unspecified), 0.59 µM.
`CCOc1cc(C)ccc1N1CCN(CCCCNC(=O)c2ccc(NC(=O)c3ccc(Cl)cc3)cc2)CC1` had an IC50 of 0.64 µM.
The compound `CCC(C)NCc1c(O)ccc2c(CNC(C)CC)c(O)ccc12` (stereo unspecified) had a half-inhibitory concentration (IC50) of 0.59 µM.
The value for `Cc1[nH]cc(Br)c(=O)c1-c1ccc(Oc2ccccc2)cc1` was 0.68 µM; that for `Cc1ccc(Nc2ccnc3ccc(C(F)(F)F)cc23)cc1O` was 0.96 µM; that for `O=c1cc(-c2ccc3ccccc3c2)[nH]c2ccccc12` was 1.16 µM.
Consider `CC(C)Sc1nc2c(c(=O)n1Cc1ccco1)C1(CCCC1)Cc1ccccc1-2`, for which the IC50 was 1.63 µM.
Turning to `O=C(NCCCCN1CCC(c2ccc3ccccc3c2O)CC1)c1ccc(NC(=O)c2ccc(Cl)cc2)cc1`, the concentration for half-maximal inhibition (IC50) is 1.01 µM.
For the compound `O=C(NCc1ccccc1)O[C@@H]1CNCC[C@H]1c1ccc(C(O)Cc2ccccc2)cc1` (stereo partly specified), the IC50 is 0.58 µM.
The value for `CCCNC(=O)C1CCN(C(c2ccccc2)c2ccc(Cl)c(Cl)c2)CC1` (stereo unspecified) was 0.71 µM; that for `CCN(CC)CCN(Cc1ccc(-c2ccc(C(F)(F)F)cc2)cc1)C(=O)Cn1c(CCc2ccc(F)cc2)nc(=O)c2sccc21` was 0.67 µM.
Consider `O=C1Nc2cccc3c2C1(CCCCN1CCC(c2c(-c4ccccc4)[nH]c4ccccc24)CC1)CCC3` (stereo unspecified), for which the concentration for half-maximal inhibition (IC50) is 1.2 µM.
The value for `CC(C)CCN1CCCN(Cc2ccc(C(=O)NCc3ccc(Cl)cc3)cc2)CC1` was 1.01 µM; that for `C=CCOC(=O)N1CCC(CNCc2ccc(-c3cccc(-c4nc5ccccc5[nH]4)c3)cc2)C1` (stereo unspecified) was 0.25 µM; that for `CC(=O)c1ccc(NC(=O)C2c3ccccc3C(=O)N(CC(C)C)C2c2cccs2)cc1` (stereo unspecified) was 1.32 µM.
The value for `CC(C)C[C@H](NC(=O)c1cc2cc(OCCN3CCNCC3)ccc2o1)C(=O)NC1CC[C@@H](C)N(C(=O)Nc2ccc(Cl)cc2)CC1=O` (stereo partly specified) was 0.38 µM; that for `CCN(CC)CCN(Cc1ccc(-c2ccc(C(F)(F)F)cc2)cc1)C(=O)c1ccc(-c2ccc(C#N)cc2)cc1` was 1.11 µM; that for `CC(C)(C)c1ccc(NC(=O)Nc2ccc(Cn3ncc(N4CCCNCC4)c(Cl)c3=O)cc2)cc1` was 0.75 µM.
To `Clc1cc2c(Nc3ccc(Oc4ccccc4)cc3)ccnc2cc1-c1ccc(CNCCN2CCOCC2)o1` belongs 0.71 µM; to `COc1ccc(NCc2cccc(-c3cccc(CNCCc4ccccc4)c3)c2)cc1`, 1.05 µM.
In turn, `CCOc1ccccc1[C@H]1[C@H](C(=O)C(C)(C)C)N2c3ccc(Br)cc3C=CC2C12C(=O)c1ccccc1C2=O` (stereo partly specified) displayed a half-maximal inhibitory concentration (IC50) of 0.85 µM.
Regarding `FC(F)(F)c1cc(CNCCCNc2nc3ccncc3[nH]2)ccc1Cl`, the 50% inhibitory concentration (IC50) came to 1.01 µM.
Consider `COc1c(C2CCN(CCN3CCC(NC(=O)c4ccc(-c5ccc(C(F)(F)F)cc5)cc4)CC3)CC2)ccc2c1CCCC2`, for which the IC50 turned out to be 1.36 µM.
The compound `COc1ccc(CCNc2nc(N)c3cc(OC)c(OC)cc3n2)cc1` returned a half-inhibitory concentration (IC50) of 1.12 µM.
On to `O=C(Nc1ccc(F)cc1)N1CCCN(c2ccnc3cc(Cl)ccc23)CC1`, for which the concentration for half-maximal inhibition (IC50) was determined as 0.79 µM.
In turn, `NC(=O)c1sc(-n2cnc3ccc(OCC4CCNCC4)cc32)cc1OCc1ccccc1C(F)(F)F` showed a half-maximal inhibitory concentration (IC50) of 0.75 µM.
The value for `Cc1cc(C(=O)Nc2ccc(-c3nc4ccccc4[nH]3)cc2)ccc1[N+](=O)[O-]` was 0.67 µM; that for `CC(=O)N1N=C(c2cccs2)Sc2c1nc(-c1ccc(Cl)cc1)n2C(C)=O` was 0.74 µM.

Broadly, the IC50 is the concentration at which inhibition is half-maximal. Lower therefore signals greater potency.

The values are drawn from PubChem BioAssay AID2305 (GlaxoSmithKline (GSK), 2010).
